The text below walks through data of article PMC4981310 (PLoS Pathogens, 2016).

Each structure is given as a SMILES string.

For assay [1], the target named is T1, GlgA (Mycobacterium tuberculosis, UniProt P9WMZ1).
T1 construct: gene glgM
The format is biochemical.

The target in assay [2] is T1, GlgA. The experiment in a line: biochemical.
The target of assay [3] is GlgP (Mycobacterium tuberculosis, UniProt P9WMW1). The assay is classed as biochemical.
Assay [4] concerns the target T1, GlgA. The format is biochemical. The source holds these as a separate data set.

`Nc1ncnc2c1ncn2[C@@H]1O[C@H](COP(=O)(O)OP(=O)(O)O)[C@@H](O)[C@H]1O` [ADP]: the “MS of reaction products; coupled assay of ADP release” value in assay [1] is “The next most abundant ion is consistent with the presence of the co-product, ADP”.
What is called Ki is a measure of affinity in units of concentration, obtained from inhibition or displacement. A high value points to a looser hold on the target. As to `O=P(O)(O)O[C@H]1O[C@H](CO)[C@@H](O)[C@H](O)[C@H]1O` [G1P, glucose 1-phosphate], the affinity in assay [2], expressed as Ki, was 895 ± 60 µM. Moreover, the “1H NMR of glycogen phosphorolysis by recombinant enzyme” value in assay [3] was “recombinant M. tuberculosis GlgP was only capable of forming G1P from glycogen and inorganic phosphate”.
Turning to `O=P(O)(O)O[C@H]1O[C@H](CO)[C@@H](O[C@H]2O[C@H](CO)[C@@H](O)[C@H](O)[C@H]2O)[C@H](O)[C@H]1O` [M1P, α-maltose 1-phosphate], the “1H NMR and high resolution MS of the enzyme reaction product” value in assay [4] is “Recombinant M. tuberculosis GlgA converts ADP-glucose and G1P to M1P”.
